# Experimental data from ChEMBL document CHEMBL3885881, “DrugMatrix”.
# Organism: Rattus norvegicus
# Experiment: DrugMatrix - Regimen: Daily Repeat
# Assay type: toxicity, organism-based, Sprague-Dawley
# Set-up: regimen Daily Repeat, gender Male, age 6-8 weeks
# Settings: in vivo, iv, vehicle 100 % SALINE; for ABSOLUTE BASOPHIL / ABSOLUTE EOSINOPHIL / ABSOLUTE LYMPHOCYTE / ABSOLUTE MONOCYTE / ABSOLUTE SEGMENTED NEUTROPHIL / BASOPHIL / EOSINOPHIL / ERYTHROCYTE COUNT / HEMATOCRIT / HEMOGLOBIN / LEUKOCYTE COUNT / LYMPHOCYTE / MEAN CORPUSCULAR HEMOGLOBIN / MEAN CORPUSCULAR HEMOGLOBIN CONCENTRATION / MEAN CORPUSCULAR VOLUME / MONOCYTE / NEUTROPHIL / NUCLEATED RED BLOOD CELLS / PLATELET COUNT: tissue Blood; for ALANINE AMINOTRANSFERASE / ALBUMIN / ALKALINE PHOSPHATASE / ASPARTATE AMINOTRANSFERASE / BLOOD UREA NITROGEN / CARBON DIOXIDE / CHLORIDE / CHOLESTEROL / CREATINE PHOSPHOKINASE / CREATININE / GLUCOSE / LACTATE DEHYDROGENASE / LIPASE / PHOSPHORUS / POTASSIUM / SODIUM / TOTAL BILIRUBIN / TOTAL PROTEIN / URIC ACID: tissue Plasma
# [1] = 0 mg/kg, 72 h, dose level Control, time 3 day
# [2] = 0 mg/kg, 120 h, dose level Control, time 5 day
# [3] = 7 mg/kg, 72 h, dose level Low, time 3 day
structure (smiles),measurement,setting,value
CC(=O)N[C@@H]1[C@H](Oc2c3cc4cc2Oc2ccc(cc2Cl)[C@@H](O[C@@H]2O[C@@H](CO)[C@@H](O)[C@H](O)[C@@H]2NC(C)=O)[C@@H]2NC(=O)[C@H](NC(=O)[C@@H]4NC(=O)[C@H]4NC(=O)[C@@H](Cc5ccc(c(Cl)c5)O3)NC(=O)[C@H](N)c3ccc(O)c(c3)Oc3cc(O)cc4c3)c3ccc(O)c(c3)-c3c(O[C@H]4O[C@H](CO)[C@@H](O)[C@@H](O)[C@@H]4O)cc(O)cc3[C@@H](C(=O)O)NC2=O)O[C@@H](CO)[C@@H](O)[C@@H]1O,ABSOLUTE BASOPHIL,[1],0 CELLS/uL
same,ABSOLUTE EOSINOPHIL,[1],193.5 CELLS/uL
same,ABSOLUTE LYMPHOCYTE,[1],15717.5 CELLS/uL
same,ABSOLUTE MONOCYTE,[1],389.33 CELLS/uL
same,ABSOLUTE SEGMENTED NEUTROPHIL,[1],1883 CELLS/uL
same,BASOPHIL,[1],0%
same,EOSINOPHIL,[1],1.17%
same,ERYTHROCYTE COUNT,[1],5.68 x10E6/uL
same,HEMATOCRIT,[1],35.83%
same,HEMOGLOBIN,[1],13.48 G/DL
same,LEUKOCYTE COUNT,[1],18.18 x10E3/uL
same,LYMPHOCYTE,[1],86.67%
same,MEAN CORPUSCULAR HEMOGLOBIN,[1],23.8 pg
same,MEAN CORPUSCULAR HEMOGLOBIN CONCENTRATION,[1],37.68 G/DL
same,MEAN CORPUSCULAR VOLUME,[1],63.27 fL
same,MONOCYTE,[1],2.17%
same,NEUTROPHIL,[1],10%
same,NUCLEATED RED BLOOD CELLS,[1],0 /100WBC
same,PLATELET COUNT,[1],1186.33 x10E3/uL
same,ALANINE AMINOTRANSFERASE,[1],68.5 u/L
same,ALBUMIN,[1],4.37 G/DL
same,ALKALINE PHOSPHATASE,[1],396.33 u/L
same,ASPARTATE AMINOTRANSFERASE,[1],92.5 u/L
same,BLOOD UREA NITROGEN,[1],18 mg/dL
same,CARBON DIOXIDE,[1],24.33 mmol/L
same,CHLORIDE,[1],102.4 MEQ/L
same,CHOLESTEROL,[1],67.17 mg/dL
same,CREATINE PHOSPHOKINASE,[1],378.67 u/L
same,CREATININE,[1],0.19 mg/dL
same,GLUCOSE,[1],178.33 mg/dL
same,LACTATE DEHYDROGENASE,[1],245.17 u/L
same,LIPASE,[1],9.2 u/L
same,PHOSPHORUS,[1],12.37 mg/dL
same,POTASSIUM,[1],6.48 MEQ/L
same,SODIUM,[1],143.28 MEQ/L
same,TOTAL BILIRUBIN,[1],0.23 mg/dL
same,TOTAL PROTEIN,[1],5.65 G/DL
same,URIC ACID,[1],1.6 mg/dL
same,ABSOLUTE BASOPHIL,[2],0 CELLS/uL
same,ABSOLUTE EOSINOPHIL,[2],27.5 CELLS/uL
same,ABSOLUTE LYMPHOCYTE,[2],13593.17 CELLS/uL
same,ABSOLUTE MONOCYTE,[2],576 CELLS/uL
same,ABSOLUTE SEGMENTED NEUTROPHIL,[2],1836.67 CELLS/uL
same,BASOPHIL,[2],0%
same,EOSINOPHIL,[2],0.17%
same,ERYTHROCYTE COUNT,[2],5.99 x10E6/uL
same,HEMATOCRIT,[2],37.42%
same,HEMOGLOBIN,[2],13.78 G/DL
same,LEUKOCYTE COUNT,[2],16.03 x10E3/uL
same,LYMPHOCYTE,[2],85.17%
same,MEAN CORPUSCULAR HEMOGLOBIN,[2],23.08 pg
same,MEAN CORPUSCULAR HEMOGLOBIN CONCENTRATION,[2],36.83 G/DL
same,MEAN CORPUSCULAR VOLUME,[2],62.6 fL
same,MONOCYTE,[2],3.5%
same,NEUTROPHIL,[2],11.17%
same,NUCLEATED RED BLOOD CELLS,[2],0 /100WBC
same,PLATELET COUNT,[2],1352.5 x10E3/uL
same,ALANINE AMINOTRANSFERASE,[2],49.83 u/L
same,ALBUMIN,[2],4.25 G/DL
same,ALKALINE PHOSPHATASE,[2],331.33 u/L
same,ASPARTATE AMINOTRANSFERASE,[2],86.17 u/L
same,BLOOD UREA NITROGEN,[2],19.5 mg/dL
same,CARBON DIOXIDE,[2],26.67 mmol/L
same,CHLORIDE,[2],103 MEQ/L
same,CHOLESTEROL,[2],67.5 mg/dL
same,CREATINE PHOSPHOKINASE,[2],346.17 u/L
same,CREATININE,[2],0.22 mg/dL
same,GLUCOSE,[2],170.67 mg/dL
same,LACTATE DEHYDROGENASE,[2],405.5 u/L
same,LIPASE,[2],8.83 u/L
same,PHOSPHORUS,[2],11.3 mg/dL
same,POTASSIUM,[2],6.06 MEQ/L
same,SODIUM,[2],143.4 MEQ/L
same,TOTAL BILIRUBIN,[2],0.17 mg/dL
same,TOTAL PROTEIN,[2],6.22 G/DL
same,URIC ACID,[2],1.63 mg/dL
same,ABSOLUTE BASOPHIL,[3],0 CELLS/uL
same,ABSOLUTE EOSINOPHIL,[3],340.67 CELLS/uL
same,ABSOLUTE LYMPHOCYTE,[3],16096 CELLS/uL
same,ABSOLUTE MONOCYTE,[3],460.67 CELLS/uL
same,ABSOLUTE SEGMENTED NEUTROPHIL,[3],1602.67 CELLS/uL
same,BASOPHIL,[3],0%
same,EOSINOPHIL,[3],1.67%
same,ERYTHROCYTE COUNT,[3],5.86 x10E6/uL
same,HEMATOCRIT,[3],37.6%
same,HEMOGLOBIN,[3],14.23 G/DL
same,LEUKOCYTE COUNT,[3],18.5 x10E3/uL
same,LYMPHOCYTE,[3],87%
same,MEAN CORPUSCULAR HEMOGLOBIN,[3],24.27 pg
same,MEAN CORPUSCULAR HEMOGLOBIN CONCENTRATION,[3],37.87 G/DL
same,MEAN CORPUSCULAR VOLUME,[3],64.13 fL
same,MONOCYTE,[3],2.67%
same,NEUTROPHIL,[3],8.67%
same,NUCLEATED RED BLOOD CELLS,[3],0 /100WBC
same,PLATELET COUNT,[3],1212.33 x10E3/uL
same,ALANINE AMINOTRANSFERASE,[3],48 u/L
same,ALBUMIN,[3],5.03 G/DL
same,ALKALINE PHOSPHATASE,[3],341.33 u/L
same,ASPARTATE AMINOTRANSFERASE,[3],90.67 u/L
same,BLOOD UREA NITROGEN,[3],21.33 mg/dL
same,CARBON DIOXIDE,[3],21.67 mmol/L
same,CHLORIDE,[3],98.33 MEQ/L
same,CHOLESTEROL,[3],73.33 mg/dL
same,CREATINE PHOSPHOKINASE,[3],336 u/L
same,CREATININE,[3],0.27 mg/dL
same,GLUCOSE,[3],149 mg/dL
same,LACTATE DEHYDROGENASE,[3],410.67 u/L
same,LIPASE,[3],10 u/L
same,PHOSPHORUS,[3],11.57 mg/dL
same,POTASSIUM,[3],7.21 MEQ/L
same,SODIUM,[3],141.2 MEQ/L
same,TOTAL BILIRUBIN,[3],0.27 mg/dL
same,TOTAL PROTEIN,[3],6.07 G/DL
same,URIC ACID,[3],2.23 mg/dL
